In the test the test system is Escherichia coli ATCC 25922. Briefly: Minimum inhibitory concentration (MIC), CLSI broth micro-dilution, E. coli. The test is classed as cell-based. The conditions noted are these: Escherichia coli. In outline: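 Antibacterial potency is measured as MIC by the CLSI broth dilution method. Bacteria at OD600 0.0005 in Tween-80-supplemented cation-adjusted Mueller Hinton broth face ten twofold compound dilutions for 22 h at 35° C.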

[1] abbreviates: ATCC25922, Table 7, cation adjusted Mueller Hinton Broth + 0.002% Tween-80, 35° C., 22 hours.
[2] abbreviates: ATCC25922, 22 h, Table 7, cation adjusted Mueller Hinton Broth + 0.002% Tween-80, 35° C.

Consider `Cc1nc(-c2ccc(C(C)(C)C)cc2)nc(C)c1C(=O)N[C@@H](CCN)C(=O)N(C)[C@@H]1C(=O)N[C@@H](C)C(=O)N[C@H](C(=O)NCC#N)Cc2cc(OCCN)c(O)c(c2)-c2cc1ccc2OCCN` (racemic) [Compound 562, (4S,7S,10S)-10-((S)-4-amino-2-(2-(4-(tert-butyl)phenyl)-4,6-dimethylpyrimidine-5-carboxamido)-N-methylbutanamido)-16,25-bis(2-aminoethoxy)-N-(cyanomethyl)-26-hydroxy-7-methyl-6,9-dioxo-5,8-diaza-1,2(1,3)-dibenzenacyclodecaphane-4-carboxamide], for which the minimum inhibitory concentration (MIC) (as a rule, the lowest concentration that inhibits growth of the organism) under setting [1] was determined as 0.094 µM. On the same count and under the same terms, the same measure for `Cc1nc(-c2ccc(C(C)(C)C)cc2)nc(C)c1C(=O)N[C@@H](CCN)C(=O)N(C)[C@@H]1C(=O)N[C@@H](C)C(=O)N[C@H](C(=O)O)Cc2cc(OCCN)c(O)c(c2)-c2cc1ccc2OCCN` (racemic) [Compound 563, rac-(8S,11S,14S)-4,18-bis(2-aminoethoxy)-3-hydroxy-11-methyl-14-[methyl-[rac-(2S)-4-amino-2-[[2-(4-tert-butylphenyl)-4,6-dimethyl-pyrimidine-5-carbonyl]amino]butanoyl]amino]-10,13-dioxo-9,12-diazatricyclo [13.3.1.12,6]icosa-1(18),2,4,6(20),15(19), 16-hexaene-8-carboxylic acid]: 0.25 µM.

With `Cc1nc(-c2ccc(OC3CCCCC3)cc2)cc(N)c1C(=O)N[C@@H](CCN)C(=O)N(C)[C@@H]1C(=O)N[C@@H](C)C(=O)N[C@H](C(=O)NCC#N)Cc2ccc(OCCCN)c(c2)-c2cc1ccc2OCCCN` (racemic) [Compound 565, rac-(8S,11S,14S)-3,18-bis(3-aminopropoxy)-N-(cyanomethyl)-11-methyl-14-[methyl-[rac-(2S)-4-amino-2-[[4-amino-6-[4-(cyclohexoxy)phenyl]-2-methyl-pyridine-3-carbonyl]amino]butanoyl]amino]-10,13-dioxo-9,12-diazatricyclo[13.3.1.12,6]icosa-1(18),2(20),3,5,15(19),16-hexaene-8-carboxamide], under setting [2], the MIC amounted to 0.13 µM.

Regarding `Cc1nc(-c2ccc(OC3CCCCC3)cc2)nc(C)c1C(=O)N[C@@H](CCN)C(=O)N(C)[C@@H]1C(=O)N[C@@H](C)C(=O)N[C@H](C(=O)NCC#N)Cc2ccc(OC[C@H](O)CN)c(c2)-c2cc1ccc2OC[C@H](O)CN` (racemic) [Compound 568, rac-(8S,11S,14S)-N-(cyanomethyl)-11-methyl-14-[methyl-[rac-(2S)-4-amino-2-[[2-[4-(cyclohexoxy)phenyl]-4,6-dimethyl-pyrimidine-5-carbonyl]amino]butanoyl]amino]-10,13-dioxo-3,18-bis[rac-(2R)-3-amino-2-hydroxy-propoxy]-9,12-diazatricyclo[13.3.1.12,6]icosa-1(18),2(20),3,5,15(19),16-hexaene-8-carboxamide], under setting [2], the minimum inhibitory concentration (MIC) stood at 0.063 µM.

`Cc1nc(-c2ccc(OC(C)C)cc2)nc(C)c1C(=O)N[C@@H](CCN)C(=O)N(C)[C@@H]1C(=O)N[C@@H](C)C(=O)N[C@H](C(=O)NCC#N)Cc2ccc(OC[C@H](O)CN)c(c2)-c2cc1ccc2OC[C@H](O)CN` (racemic) [Compound 569, rac-(8S,11S,14S)-N-(cyanomethyl)-11-methyl-14-[methyl-[rac-(2S)-4-amino-2-[[2-(4-isopropoxyphenyl)-4,6-dimethyl-pyrimidine-5-carbonyl]amino]butanoyl]amino]-10,13-dioxo-3,18-bis[rac-(2R)-3-amino-2-hydroxy-propoxy]-9,12-diazatricyclo[13.3.1.12,6]icosa-1(18),2(20),3,5,15(19),16-hexaene-8-carboxamide]: the minimum inhibitory concentration (MIC) under setting [1] was determined as 0.5 µM. Consider `Cc1nc(-c2ccc(C(C)(C)C)cc2)nc(C)c1C(=O)N[C@@H](CCN)C(=O)N(C)[C@@H]1C(=O)N[C@@H](C)C(=O)N[C@H](C(=O)NCC#N)Cc2ccc(OCCN)c(c2)-c2cc1ccc2OC[C@H](O)CN` (racemic) [Compound 571, rac-(8S,11S,14S)-3-(2-aminoethoxy)-N-(cyanomethyl)-11-methyl-14-[methyl-[rac-(2S)-4-amino-2-[[2-(4-tert-butylphenyl)-4,6-dimethyl-pyrimidine-5-carbonyl]amino]butanoyl]amino]-10,13-dioxo-18-[rac-(2R)-3-amino-2-hydroxy-propoxy]-9,12-diazatricyclo[13.3.1.12,6]icosa-1(18),2(20),3,5,15(19),16-hexaene-8-carboxamide], for which the MIC under setting [2] was found to be 0.094 µM.

For `Cc1nc(-c2ccc(C(C)(C)C)cc2)nc(C)c1C(=O)N[C@@H](CNS(N)(=O)=O)C(=O)N(C)[C@@H]1C(=O)N[C@@H](C)C(=O)N[C@H](C(=O)NCC#N)Cc2ccc(OCCN)c(c2)-c2cc1ccc2OCCN` (racemic) [Compound 572, rac-(8S,11S,14S)-3,18-bis(2-aminoethoxy)-N-(cyanomethyl)-11-methyl-14-[methyl-[rac-(2S)-2-[[2-(4-tert-butylphenyl)-4,6-dimethyl-pyrimidine-5-carbonyl]amino]-3-(sulfamoylamino)propanoyl]amino]-10,13-dioxo-9,12-diazatricyclo[13.3.1.12,6]icosa-1(18),2(20),3,5,15(19),16-hexaene-8-carboxamide], under setting [2], the MIC stood at 0.28 µM. Same read-out and setting: the same measure for `Cc1nc(-c2ccc(OC3CCCCC3)cc2)nc(C)c1C(=O)N[C@@H](CNS(N)(=O)=O)C(=O)N[C@@H]1C(=O)N[C@@H](C)C(=O)N[C@H](C(=O)NCC#N)Cc2ccc(OCCN)c(c2)-c2cc1ccc2OCCN` (racemic) [Compound 573, rac-(8S,11S,14S)-3,18-bis(2-aminoethoxy)-N-(cyanomethyl)-11-methyl-10,13-dioxo-14-[[rac-(2S)-2-[[2-[4-(cyclohexoxy)phenyl]-4,6-dimethyl-pyrimidine-5-carbonyl]amino]-3-(sulfamoylamino)propanoyl]amino]-9,12-diazatricyclo[13.3.1.12,6]icosa-1(18),2(20),3,5,15(19),16-hexaene-8-carboxamide]: 0.5 µM; for `Cc1nc(-c2ccc(C(C)(C)C)cc2)nc(C)c1C(=O)N[C@@H](CCNS(N)(=O)=O)C(=O)N(C)[C@@H]1C(=O)N[C@@H](C)C(=O)N[C@H](C(=O)NCC#N)Cc2ccc(OCCN)c(c2)-c2cc1ccc2OCCN` (racemic) [Compound 574, rac-(8S,11S,14S)-3,18-bis(2-aminoethoxy)-N-(cyanomethyl)-11-methyl-14-[methyl-[rac-(2S)-2-[[2-(4-tert-butylphenyl)-4,6-dimethyl-pyrimidine-5-carbonyl]amino]-4-(sulfamoylamino)butanoyl]amino]-10,13-dioxo-9,12-diazatricyclo[13.3.1.12,6]icosa-1(18),2(20),3,5,15(19),16-hexaene-8-carboxamide]: 0.5 µM. Same read-out and setting: the same measure for `Cc1nc(-c2ccc(C(C)(C)C)cc2)nc(C)c1C(=O)N[C@@H](CNS(N)(=O)=O)C(=O)N(C)[C@@H]1C(=O)N[C@@H](C)C(=O)N[C@H](C(=O)NCC#N)Cc2ccc(OCCCN)c(c2)-c2cc1ccc2OCCCN` (racemic) [Compound 575, rac-(8S,11S,14S)-3,18-bis(3-aminopropoxy)-N-(cyanomethyl)-11-methyl-14-[methyl-[rac-(2S)-2-[[2-(4-tert-butylphenyl)-4,6-dimethyl-pyrimidine-5-carbonyl]amino]-3-(sulfamoylamino)propanoyl]amino]-10,13-dioxo-9,12-diazatricyclo[13.3.1.12,6]icosa-1(18),2(20),3,5,15(19),16-hexaene-8-carboxamide]: 0.31 µM. Same read-out and setting: in the case of `Cc1nc(-c2ccc(OC3CCCCC3)cc2)nc(C)c1C(=O)N[C@@H](CNS(N)(=O)=O)C(=O)N(C)[C@@H]1C(=O)N[C@@H](C)C(=O)N[C@H](C(=O)NCC#N)Cc2ccc(OCCCN)c(c2)-c2cc1ccc2OCCCN` (racemic) [Compound 576, rac-(8S,11S,14S)-3,18-bis(3-aminopropoxy)-N-(cyanomethyl)-11-methyl-14-[methyl-[rac-(2S)-2-[[2-[4-(cyclohexoxy)phenyl]-4,6-dimethyl-pyrimidine-5-carbonyl]amino]-3-(sulfamoylamino)propanoyl]amino]-10,13-dioxo-9,12-diazatricyclo[13.3.1.12,6]icosa-1(18),2(20),3,5,15(19),16-hexaene-8-carboxamide] it was 0.5 µM; in that of `Cc1nc(-c2ccc(C(C)(C)C)cc2)nc(C)c1C(=O)N[C@@H](CNS(N)(=O)=O)C(=O)N(C)[C@@H]1C(=O)N[C@@H](C)C(=O)N[C@H](C(=O)NCC#N)Cc2ccc(OC[C@H](O)CN)c(c2)-c2cc1ccc2OC[C@H](O)CN` (racemic) [Compound 577, rac-(8S,11S,14S)-N-(cyanomethyl)-11-methyl-14-[methyl-[rac-(2S)-2-[[2-(4-tert-butylphenyl)-4,6-dimethyl-pyrimidine-5-carbonyl]amino]-3-(sulfamoylamino)propanoyl]amino]-10,13-dioxo-3,18-bis[rac-(2R)-3-amino-2-hydroxy-propoxy]-9,12-diazatricyclo[13.3.1.12,6]icosa-1(18),2(20),3,5,15(19),16-hexaene-8-carboxamide], 0.21 µM. Regarding `Cc1nc(-c2ccc(OC3CCCCC3)cc2)nc(C)c1C(=O)N[C@@H](CNS(N)(=O)=O)C(=O)N(C)[C@@H]1C(=O)N[C@@H](C)C(=O)N[C@H](C(=O)NCC#N)Cc2ccc(OC[C@H](O)CN)c(c2)-c2cc1ccc2OC[C@H](O)CN` (racemic) [Compound 578, rac-(8S,11S,14S)-N-(cyanomethyl)-11-methyl-14-[methyl-[rac-(2S)-2-[[2-[4-(cyclohexoxy)phenyl]-4,6-dimethyl-pyrimidine-5-carbonyl]amino]-3-(sulfamoylamino)propanoyl]amino]-10,13-dioxo-3,18-bis[rac-(2R)-3-amino-2-hydroxy-propoxy]-9,12-diazatricyclo[13.3.1.12,6]icosa-1(18),2(20),3,5,15(19),16-hexaene-8-carboxamide], the minimum inhibitory concentration (MIC) under setting [2] stood at 0.19 µM.
